Data as given in patent US20240239781A1, “1H-PYRAZOLE DERIVATIVES AS SIGMA LIGANDS” (ACONDICIONAMIENTO TARRASENSE, priority 2021, published 2024).
pKi: −log10 of the molar value.

How the values were obtained:
[1] = target: T1, human σ2/TMEM97 receptor (Homo sapiens, UniProt Q5BJF2); assay: Binding assay to human σ2/TMEM97 receptor ([3H]-DTG, transfected HEK-293 membranes); settings: class scale, read-out: Binding σ-2 Ki
T1 construct: expressed in transfected cells; host or cells: HEK-293
Method: Transfected HEK-293 membranes (15 μg) were incubated with 10 nM [^3H]-1,3-Di-o-tolylguanidine (DTG) in assay buffer containing Tris-HCl 50 mM at pH 8.0. NSB (non-specific binding) was measured by adding 10 μM haloperidol. The binding of the test compound was measured at either one concentration (% inhibition at 1 or 10 μM) or five different concentrations to determine affinity values (Ki). Plates were incubated at 25° C. for 120 minutes. After the incubation period, the reaction mix was transferred to MultiScreen HTS, FC plates (Millipore), filtered and washed 3 times with ice-cold 10 mM Tris-HCL (pH 8.0). Filters were dried and counted at approximately 40% efficiency in a MicroBeta scintillation counter (Perkin-Elmer) using EcoScint liquid scintillation cocktail.

[2] = target: T2, human σ1 receptor (Homo sapiens, UniProt Q99720); assay: Human σ1 receptor radioligand assay ([3H](+)-pentazocine, transfected HEK-293 membranes); settings: class scale, read-out: Binding σ-1 Ki
T2 construct: expressed in transfected cells; host or cells: HEK-293
Method: Transfected HEK-293 membranes (7 μg) were incubated with 5 nM of [^3H](+)-pentazocine in assay buffer containing Tris-HCl 50 mM at pH 8. NBS (non-specific binding) was measured by adding 10 μM haloperidol. The binding of the test compound was measured at either one concentration (% inhibition at 1 or 10 μM) or five different concentrations to determine affinity values (Ki). Plates were incubated at 37° C. for 120 minutes. After the incubation period, the reaction mix was then transferred to MultiScreen HTS, FC plates (Millipore), filtered and plates were washed 3 times with ice-cold 10 mM Tris-HCL (pH7.4). Filters were dried and counted at approximately 40% efficiency in a MicroBeta scintillation counter (Perkin-Elmer) using EcoScint liquid scintillation cocktail.

T1 sequence (Q5BJF2 whole entry): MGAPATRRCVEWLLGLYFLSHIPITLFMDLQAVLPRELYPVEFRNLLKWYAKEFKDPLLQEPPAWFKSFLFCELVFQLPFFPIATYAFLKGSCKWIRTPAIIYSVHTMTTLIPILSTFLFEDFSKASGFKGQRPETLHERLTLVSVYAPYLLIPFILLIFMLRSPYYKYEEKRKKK
T2 sequence (Q99720 whole entry): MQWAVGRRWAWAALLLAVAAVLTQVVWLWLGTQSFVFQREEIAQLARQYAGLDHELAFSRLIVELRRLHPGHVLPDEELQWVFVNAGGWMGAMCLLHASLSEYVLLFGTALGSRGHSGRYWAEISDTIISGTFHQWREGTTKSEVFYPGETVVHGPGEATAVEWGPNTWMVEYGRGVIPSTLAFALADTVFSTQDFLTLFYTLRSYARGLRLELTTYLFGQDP

CC(C)CCNC1CCCCN(Cc2c(-c3cccnc3)nn(C)c2Cl)C1 (stereo not shown) [Example 31, 1-((5-Chloro-1-methyl-3-(pyridin-3-yl)-1H-pyrazol-4-yl)methyl)-N-isopentylazepan-3-amine]
pKi [1]: < 6.00 | pKi [2]: 6.00 to 6.30

CC(C)CCNC1CCCCN(Cc2c(-c3nccn3C)nn(C)c2Cl)C1 (stereo not shown) [Example 32, 1-((5-Chloro-1-methyl-3-(1-methyl-1H-imidazol-2-yl)-1H-pyrazol-4-yl)methyl)-N-isopentylazepan-3-amine]
pKi [1]: 6.30 to 7.00 | pKi [2]: < 6.00

Cn1nc(-c2ccon2)c(CN2CCCCC(NCCC(C)(C)C)C2)c1Cl (stereo not shown) [Example 33, 1-((5-Chloro-3-(isoxazol-3-yl)-1-methyl-1H-pyrazol-4-yl)methyl)-N-(3,3-dimethylbutyl)azepan-3-amine]
pKi [1]: 6.30 to 7.00 | pKi [2]: 6.30 to 7.00

CC(C)CCNC1CCCCN(Cc2c(-c3ccon3)nn(C)c2Cl)C1 (stereo not shown) [Example 34, 1-((5-Chloro-3-(isoxazol-3-yl)-1-methyl-1H-pyrazol-4-yl)methyl)-N-isopentylazepan-3-amine]
pKi [1]: 6.30 to 7.00 | pKi [2]: 6.00 to 6.30

COc1ccc(-c2nn(C)c(Cl)c2CN2CCCCC(NCCC(C)(C)C)C2)nc1 (stereo not shown) [Example 35, 1-((5-Chloro-3-(5-methoxypyridin-2-yl)-1-methyl-1H-pyrazol-4-yl)methyl)-N-(3,3-dimethylbutyl)azepan-3-amine]
pKi [1]: < 6.00 | pKi [2]: 6.00 to 6.30

COc1ccc(-c2nn(C)c(Cl)c2CN2CCCCC(NCCC(C)C)C2)nc1 (stereo not shown) [Example 36, 1-((5-Chloro-3-(5-methoxypyridin-2-yl)-1-methyl-1H-pyrazol-4-yl)methyl)-N-isopentylazepan-3-amine]
pKi [1]: < 6.00 | pKi [2]: 6.00 to 6.30

Cc1onc(-c2nn(C)c(Cl)c2CN2CCCCC(NCCC(C)C)C2)c1C (stereo not shown) [Example 37, 1-((5-Chloro-3-(4,5-dimethylisoxazol-3-yl)-1-methyl-1H-pyrazol-4-yl)methyl)-N-isopentylazepan-3-amine]
pKi [1]: 6.30 to 7.00 | pKi [2]: 6.30 to 7.00

Cc1onc(-c2nn(C)c(Cl)c2CN2CCCCC(NCCC(C)(C)C)C2)c1C (stereo not shown) [Example 38, 1-((5-Chloro-3-(4,5-dimethylisoxazol-3-yl)-1-methyl-1H-pyrazol-4-yl)methyl)-N-(3,3-dimethylbutyl)azepan-3-amine]
pKi [1]: 6.30 to 7.00 | pKi [2]: 6.30 to 7.00

CC(C)CCNC1CCCCN(Cc2c(-c3cccc(O)n3)nn(C)c2Cl)C1 (stereo not shown) [Example 39, 6-(5-Chloro-4-((3-(isopentylamino)azepan-1-yl)methyl)-1-methyl-1H-pyrazol-3-yl)pyridin-2-ol]
pKi [1]: 6.30 to 7.00 | pKi [2]: 6.00 to 6.30

CC(C)CCN[C@H]1CCCCN(Cc2c(-c3noc4c3COCC4)nn(C)c2Cl)C1 [Example 40, (S)-1-((5-Chloro-3-(6,7-dihydro-4H-pyrano[3,4-d]isoxazol-3-yl)-1-methyl-1H-pyrazol-4-yl)methyl)-N-isopentylazepan-3-amine]
pKi [1]: 6.30 to 7.00 | pKi [2]: 6.30 to 7.00

Cc1cc(-c2nn(C)c(Cl)c2CN2CCC(CNCCC(C)C)CC2)no1 [Example 41, N-((1-((5-Chloro-1-methyl-3-(5-methylisoxazol-3-yl)-1H-pyrazol-4-yl)methyl)piperidin-4-yl)methyl)-3-methylbutan-1-amine]
pKi [1]: 6.30 to 7.00 | pKi [2]: 6.30 to 7.00

Cc1cc(-c2nn(C)c(Cl)c2CN2CCC(CN(CC(C)C)CC(C)C)C2)no1 (stereo not shown) [Example 42, N-((1-((5-Chloro-1-methyl-3-(5-methylisoxazol-3-yl)-1H-pyrazol-4-yl)methyl)pyrrolidin-3-yl)methyl)-/-isobutyl-2-methylpropan-1-amine]
pKi [1]: 6.30 to 7.00 | pKi [2]: < 6.00

Cc1cc(-c2nn(C)c(Cl)c2CN2CCC(CNCC(C)C)CC2)no1 [Example 43, N-((1-((5-Chloro-1-methyl-3-(5-methylisoxazol-3-yl)-1H-pyrazol-4-yl)methyl)piperidin-4-yl)methyl)-2-methylpropan-1-amine]
pKi [1]: 6.00 to 6.30 | pKi [2]: 6.00 to 6.30

Cc1cc(-c2nn(C)c(Cl)c2CN2CCC(CNCc3ccccc3)C2)no1 (stereo not shown) [Example 44, N-Benzyl-1-(1-((5-chloro-1-methyl-3-(5-methylisoxazol-3-yl)-1H-pyrazol-4-yl)methyl)pyrrolidin-3-yl)methanamine]
pKi [1]: 6.00 to 6.30 | pKi [2]: 6.00 to 6.30

Cc1cc(-c2nn(C)c(Cl)c2CN2CCC(CNCCc3ccccc3)C2)no1 (stereo not shown) [Example 45, N-((1-((5-Chloro-1-methyl-3-(5-methylisoxazol-3-yl)-1H-pyrazol-4-yl)methyl)pyrrolidin-3-yl)methyl)-2-phenylethanamine]
pKi [1]: 6.30 to 7.00 | pKi [2]: 6.30 to 7.00

CCCN(CCC)CC1CCN(Cc2c(-c3cc(C)on3)nn(C)c2Cl)C1 (stereo not shown) [Example 46, N-((1-((5-Chloro-1-methyl-3-(5-methylisoxazol-3-yl)-1H-pyrazol-4-yl)methyl)pyrrolidin-3-yl)methyl)-N-propylpropan-1-amine]
pKi [1]: < 6.00 | pKi [2]: 6.30 to 7.00

CCCNCC1CCN(Cc2c(-c3cc(C)on3)nn(C)c2Cl)C1 (stereo not shown) [Example 47, N-((1-((5-Chloro-1-methyl-3-(5-methylisoxazol-3-yl)-1H-pyrazol-4-yl)methyl)pyrrolidin-3-yl)methyl)propan-1-amine]
pKi [1]: < 6.00 | pKi [2]: < 6.00

Cc1cc(-c2nn(C)c(Cl)c2CN2CCCC(CNCC(C)C)C2)no1 (stereo not shown) [Example 48, N-((1-((5-Chloro-1-methyl-3-(5-methylisoxazol-3-yl)-1H-pyrazol-4-yl)methyl)piperidin-3-yl)methyl)-2-methylpropan-1-amine]
pKi [1]: 6.30 to 7.00 | pKi [2]: < 6.00

Cc1cc(-c2nn(C)c(Cl)c2CN2CCC(CNCC(C)C)C2)no1 (stereo not shown) [Example 49, N-((1-((5-Chloro-1-methyl-3-(5-methylisoxazol-3-yl)-1H-pyrazol-4-yl)methyl)pyrrolidin-3-yl)methyl)-2-methylpropan-1-amine]
pKi [1]: < 6.00 | pKi [2]: 6.30 to 7.00

Cc1cc(-c2nn(C)c(Cl)c2CN2CCC3(CC2)CCN(CCC(C)(C)C)C3)no1 [Example 50, 3-(5-Chloro-4-((2-(3,3-dimethylbutyl)-2,8-diazaspiro[4.5]decan-8-yl)methyl)-1-methyl-1H-pyrazol-3-yl)-5-methylisoxazole]
pKi [1]: > 7.00 | pKi [2]: 6.30 to 7.00

Cc1cc(-c2nn(C)c(Cl)c2CN2CC3(CCN(CCC(C)(C)C)C3)C2)no1 [Example 51, 3-(5-Chloro-4-((6-(3,3-dimethylbutyl)-2,6-diazaspiro[3.4]octan-2-yl)methyl)-1-methyl-1H-pyrazol-3-yl)-5-methylisoxazole]
pKi [1]: > 7.00 | pKi [2]: > 7.00

Cc1cc(-c2nn(C)c(Cl)c2CN2CCC3(C2)CN(CCC(C)(C)C)C3)no1 [Example 52, 3-(5-Chloro-4-((2-(3,3-dimethylbutyl)-2,6-diazaspiro[3.4]octan-6-yl)methyl)-1-methyl-1H-pyrazol-3-yl)-5-methylisoxazole]
pKi [1]: > 7.00 | pKi [2]: > 7.00

Cc1cc(-c2nn(C)c(Cl)c2CN2CCC3(CCN(CCC(C)(C)C)CC3)CC2)no1 [Example 53, 3-(5-Chloro-4-((9-(3,3-dimethylbutyl)-3,9-diazaspiro[5.5]undecan-3-yl)methyl)-1-methyl-1H-pyrazol-3-yl)-5-methylisoxazole]
pKi [1]: > 7.00 | pKi [2]: 6.30 to 7.00

Cc1cc(-c2nn(C)c(Cl)c2CN2CCC3(CCN(CCC(C)(C)C)C3)C2)no1 (stereo not shown) [Example 54, 3-(5-Chloro-4-((7-(3,3-dimethylbutyl)-2,7-diazaspiro[4.4]nonan-2-yl)methyl)-1-methyl-1H-pyrazol-3-yl)-5-methylisoxazole]
pKi [1]: > 7.00 | pKi [2]: > 7.00

Cc1cc(-c2nn(C)c(Cl)c2CN2CCCC(CNCc3ccccc3)C2)no1 (stereo not shown) [Example 55, N-Benzyl-1-(1-((5-chloro-1-methyl-3-(5-methylisoxazol-3-yl)-1H-pyrazol-4-yl)methyl)piperidin-3-yl)methanamine]
pKi [1]: 6.30 to 7.00 | pKi [2]: < 6.00

Cc1cc(-c2nn(C)c(Cl)c2CN2CCC(CNCc3ccccc3)CC2)no1 [Example 56, N-Benzyl-1-(1-((5-chloro-1-methyl-3-(5-methylisoxazol-3-yl)-1H-pyrazol-4-yl)methyl)piperidin-4-yl)methanamine]
pKi [1]: 6.30 to 7.00 | pKi [2]: 6.30 to 7.00

Cc1cc(-c2nn(C)c(Cl)c2CN2CCCC(CNCCc3ccccc3)C2)no1 (stereo not shown) [Example 57, N-((1-((5-Chloro-1-methyl-3-(5-methylisoxazol-3-yl)-1H-pyrazol-4-yl)methyl)piperidin-3-yl)methyl)-2-phenylethanamine]
pKi [1]: 6.30 to 7.00 | pKi [2]: 6.00 to 6.30

Cc1cc(-c2nn(C)c(Cl)c2CN2CCCC(CNCCC(C)C)C2)no1 (stereo not shown) [Example 58, N-((1-((5-Chloro-1-methyl-3-(5-methylisoxazol-3-yl)-1H-pyrazol-4-yl)methyl)piperidin-3-yl)methyl)-3-methylbutan-1-amine]
pKi [1]: > 7.00 | pKi [2]: 6.30 to 7.00

Cc1cc(-c2nn(C)c(Cl)c2CN2CCCCC(CNCCC(C)C)C2)no1 (stereo not shown) [Example 59, N-((1-((5-Chloro-1-methyl-3-(5-methylisoxazol-3-yl)-1H-pyrazol-4-yl)methyl)azepan-3-yl)methyl)-3-methylbutan-1-amine]
pKi [1]: 6.30 to 7.00 | pKi [2]: 6.00 to 6.30
